According to patent publication US7880007B2, “Bicyclic substituted phenyl piperidine modulators of muscarinic receptors” (Vertex Pharmaceuticals Incorporated, priority 2004, dated 2011):

Key:
Format in all cases: cell-based
M3 muscarinic receptor = target: T1, M3 muscarinic receptor (Homo sapiens, UniProt P20309); assay: Functional mobilization of intracellular calcium (FLIPR), M3-CHO cells; conditions: for Emax: 100% efficacy = maximum response obtained with the Carbachol control; for M3 Activity: M3-CHO cells, calcium mobilization (FLIPR)
T1 construct: expressed in transfected cells; host or cells: CHO (M3-CHO)
Outline: (§1)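 Calcium mobilisation read by FLIPR over 60 s (ex 488/em 540 nm) in recombinant muscarinic CHO lines loaded with calcium dye plus 1 mM probenecid. Compounds tested as agonists alone, or as inhibitors against EC80 carbachol after 15 min pre-incubation or co-addition; 0.5% DMSO; efficacy scaled to carbachol maximal response.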

M2 muscarinic receptor = target: T2, M2 muscarinic receptor (Homo sapiens, UniProt P08172); assay: Functional mobilization of intracellular calcium (FLIPR), M2-CHO cells; conditions: for Emax: 100% efficacy = maximum response obtained with the Carbachol control; for M2 Activity: M2-CHO cells, calcium mobilization (FLIPR)
T2 construct: expressed in transfected cells; host or cells: CHO (M2-CHO)
T2 sequence (P08172 1-466): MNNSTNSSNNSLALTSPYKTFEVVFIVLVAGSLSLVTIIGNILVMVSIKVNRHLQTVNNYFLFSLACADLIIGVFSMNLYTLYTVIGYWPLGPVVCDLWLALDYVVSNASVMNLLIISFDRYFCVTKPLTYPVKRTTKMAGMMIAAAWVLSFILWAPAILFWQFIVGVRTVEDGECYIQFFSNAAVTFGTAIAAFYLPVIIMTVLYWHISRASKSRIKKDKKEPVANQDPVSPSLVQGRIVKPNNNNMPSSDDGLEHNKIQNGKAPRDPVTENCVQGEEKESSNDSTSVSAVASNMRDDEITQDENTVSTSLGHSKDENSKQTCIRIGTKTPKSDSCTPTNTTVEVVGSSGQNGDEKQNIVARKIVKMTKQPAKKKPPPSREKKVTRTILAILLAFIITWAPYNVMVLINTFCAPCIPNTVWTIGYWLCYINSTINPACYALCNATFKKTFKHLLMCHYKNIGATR
Outline: as §1

M1 muscarinic receptor = target: T3, M1 muscarinic receptor (Homo sapiens, UniProt P11229); assay: Functional mobilization of intracellular calcium (FLIPR), M1-CHO cells; conditions: for Emax: 100% efficacy = maximum response obtained with the Carbachol control; for M1 Activity: M1-CHO cells, calcium mobilization (FLIPR)
T3 construct: expressed in transfected cells; host or cells: CHO (M1-CHO)
T3 sequence (P11229 1-460): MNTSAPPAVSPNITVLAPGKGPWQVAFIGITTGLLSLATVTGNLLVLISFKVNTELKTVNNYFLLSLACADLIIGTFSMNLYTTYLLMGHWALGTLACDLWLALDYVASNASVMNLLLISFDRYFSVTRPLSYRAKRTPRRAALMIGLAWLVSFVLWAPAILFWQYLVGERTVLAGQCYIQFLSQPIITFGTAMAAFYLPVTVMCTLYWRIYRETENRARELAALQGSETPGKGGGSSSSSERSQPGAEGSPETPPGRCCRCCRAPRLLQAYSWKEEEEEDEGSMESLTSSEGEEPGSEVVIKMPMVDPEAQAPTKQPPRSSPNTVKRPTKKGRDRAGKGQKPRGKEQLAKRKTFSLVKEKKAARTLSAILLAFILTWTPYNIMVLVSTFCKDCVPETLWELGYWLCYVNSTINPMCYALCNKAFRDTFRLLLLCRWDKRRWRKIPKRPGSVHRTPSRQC
Outline: as §1

M4 muscarinic receptor = target: T4, M4 muscarinic receptor (Homo sapiens, UniProt P08173); assay: Functional mobilization of intracellular calcium (FLIPR), M4-CHO cells; conditions: for Emax: 100% efficacy = maximum response obtained with the Carbachol control; for M4 Activity: M4-CHO cells, calcium mobilization (FLIPR)
T4 construct: expressed in transfected cells; host or cells: CHO (M4-CHO)
T4 sequence (P08173 1-479): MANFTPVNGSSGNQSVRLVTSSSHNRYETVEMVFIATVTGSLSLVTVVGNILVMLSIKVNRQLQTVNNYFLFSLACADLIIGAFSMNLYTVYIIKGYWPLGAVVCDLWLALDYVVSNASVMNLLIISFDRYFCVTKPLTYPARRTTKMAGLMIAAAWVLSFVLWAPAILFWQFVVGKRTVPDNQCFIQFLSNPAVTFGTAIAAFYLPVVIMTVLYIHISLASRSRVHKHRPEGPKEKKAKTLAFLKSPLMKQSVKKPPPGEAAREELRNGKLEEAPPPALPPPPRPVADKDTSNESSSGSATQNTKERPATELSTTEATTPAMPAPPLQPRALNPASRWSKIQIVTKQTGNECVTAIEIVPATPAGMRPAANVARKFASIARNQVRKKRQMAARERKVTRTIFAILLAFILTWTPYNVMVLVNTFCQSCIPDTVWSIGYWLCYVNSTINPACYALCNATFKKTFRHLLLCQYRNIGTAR
Outline: as §1

T1 sequence (P20309 whole entry): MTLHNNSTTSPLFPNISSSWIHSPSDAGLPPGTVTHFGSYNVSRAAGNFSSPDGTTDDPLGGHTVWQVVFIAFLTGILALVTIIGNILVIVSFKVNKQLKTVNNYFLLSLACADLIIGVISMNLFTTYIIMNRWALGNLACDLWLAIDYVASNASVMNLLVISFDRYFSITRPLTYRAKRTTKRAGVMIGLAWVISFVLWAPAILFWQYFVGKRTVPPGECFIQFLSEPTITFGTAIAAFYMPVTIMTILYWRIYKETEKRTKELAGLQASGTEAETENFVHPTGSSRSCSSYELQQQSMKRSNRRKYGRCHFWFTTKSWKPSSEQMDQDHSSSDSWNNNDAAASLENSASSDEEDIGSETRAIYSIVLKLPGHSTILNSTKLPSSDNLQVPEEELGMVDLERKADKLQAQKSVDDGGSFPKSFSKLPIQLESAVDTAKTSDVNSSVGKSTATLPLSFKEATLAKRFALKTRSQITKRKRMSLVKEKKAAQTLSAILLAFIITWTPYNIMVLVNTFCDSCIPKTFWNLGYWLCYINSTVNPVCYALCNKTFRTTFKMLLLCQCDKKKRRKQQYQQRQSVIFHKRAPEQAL

Emax (M3 muscarinic receptor) | Emax (M2 muscarinic receptor) | Emax (M1 muscarinic receptor) | Emax (M4 muscarinic receptor) | SMILES | M3 Activity (M3 muscarinic receptor) | M2 Activity (M2 muscarinic receptor) | M1 Activity (M1 muscarinic receptor) | M4 Activity (M4 muscarinic receptor)
< 25% | 25 to 100% | 25 to 100% | 25 to 100% | Cc1ccc(F)c(C2CCN(C3C[C@H]4CC[C@H]3C4)CC2)c1 (stereo partly drawn) [Compound 290] | + (activity was measured to be greater than 5.0 μM) | + (activity was measured to be greater than 5.0 μM) | ++ (activity was measured to be from 1.0 μM to 5.0 μM) | ++ (activity was measured to be from 1.0 μM to 5.0 μM)
< 25% | < 25% | < 25% | < 25% | COc1ccccc1C1CCN(CC2=CC[C@@H]3C[C@@H]2C3(C)C)CC1 [Compound 291] | + (activity was measured to be greater than 5.0 μM) | + (activity was measured to be greater than 5.0 μM) | + (activity was measured to be greater than 5.0 μM) | + (activity was measured to be greater than 5.0 μM)
< 25% | < 25% | < 25% | 25 to 100% | Fc1ccc(-c2ccccc2C2CCN([C@H]3C[C@H]4CC[C@H]3C4)CC2)cc1 [Compound 294] | + (activity was measured to be greater than 5.0 μM) | + (activity was measured to be greater than 5.0 μM) | + (activity was measured to be greater than 5.0 μM) | ++ (activity was measured to be from 1.0 μM to 5.0 μM)
< 25% | < 25% | 25 to 100% | 25 to 100% | COc1ccc(C(F)(F)F)cc1C1CCN(C2C[C@H]3CC[C@H]2C3)CC1 (stereo partly drawn) [Compound 296] | + (activity was measured to be greater than 5.0 μM) | + (activity was measured to be greater than 5.0 μM) | ++ (activity was measured to be from 1.0 μM to 5.0 μM) | ++ (activity was measured to be from 1.0 μM to 5.0 μM)
< 25% | < 25% | 25 to 100% | 25 to 100% | CCOC(=O)N1CCC(CN2CCC(c3cc(-c4ccc5c(c4)OCO5)ccc3OC)CC2)CC1 [Compound 297] | + (activity was measured to be greater than 5.0 μM) | + (activity was measured to be greater than 5.0 μM) | ++ (activity was measured to be from 1.0 μM to 5.0 μM) | ++ (activity was measured to be from 1.0 μM to 5.0 μM)
< 25% | < 25% | 25 to 100% | 25 to 100% | CCOC(=O)N1CCC(CN2CCC(c3cc(-c4ccc(C(=O)NC)c(Cl)c4)ccc3OC)CC2)CC1 [Compound 298] | + (activity was measured to be greater than 5.0 μM) | + (activity was measured to be greater than 5.0 μM) | ++ (activity was measured to be from 1.0 μM to 5.0 μM) | +++ (activity was measured to be less than 1.0 μM)
< 25% | 25 to 100% | 25 to 100% | 25 to 100% | COc1ccc(Cl)cc1C1CCN(C2(C)CCCCC2)CC1 [Compound 300, 4-(5-chloro-2-methoxyphenyl)-1-(1-methylcyclo-hexyl)piperidine] | + (activity was measured to be greater than 5.0 μM) | ++ (activity was measured to be from 1.0 μM to 5.0 μM) | ++ (activity was measured to be from 1.0 μM to 5.0 μM) | +++ (activity was measured to be less than 1.0 μM)
< 25% | < 25% | < 25% | 25 to 100% | Cc1ccccc1-c1ccccc1C1CCN([C@H]2C[C@H]3CC[C@H]2C3)CC1 [Compound 302] | + (activity was measured to be greater than 5.0 μM) | + (activity was measured to be greater than 5.0 μM) | + (activity was measured to be greater than 5.0 μM) | ++ (activity was measured to be from 1.0 μM to 5.0 μM)
< 25% | < 25% | < 25% | 25 to 100% | COc1c(F)cc(F)cc1C1CCN(C2CCOCC2)CC1 [Compound 305] | + (activity was measured to be greater than 5.0 μM) | + (activity was measured to be greater than 5.0 μM) | + (activity was measured to be greater than 5.0 μM) | ++ (activity was measured to be from 1.0 μM to 5.0 μM)
25 to 100% | 25 to 100% | 25 to 100% | 25 to 100% | CCOC(=O)N1CCC(CN2CCC(c3ccccc3C)CC2)CC1 [Compound 306] | +++ (activity was measured to be less than 1.0 μM) | +++ (activity was measured to be less than 1.0 μM) | +++ (activity was measured to be less than 1.0 μM) | +++ (activity was measured to be less than 1.0 μM)
– | 25 to 100% | 25 to 100% | 25 to 100% | COc1ccccc1C1CCN(CC2CC3C=CC2C3)CC1 (stereo not drawn) [Compound 307] | + (activity was measured to be greater than 5.0 μM) | + (activity was measured to be greater than 5.0 μM) | ++ (activity was measured to be from 1.0 μM to 5.0 μM) | +++ (activity was measured to be less than 1.0 μM)

SMILES | Emax (M3 muscarinic receptor) | Emax (M2 muscarinic receptor) | Emax (M1 muscarinic receptor) | Emax (M4 muscarinic receptor) | M3 Activity (M3 muscarinic receptor) | M2 Activity (M2 muscarinic receptor) | M1 Activity (M1 muscarinic receptor) | M4 Activity (M4 muscarinic receptor)
CCOC(=O)N1CCC(N2C3CCC2CC(c2ccccc2OC)C3)CC1 (stereo not drawn) [Compound 289, ethyl 4-(3-(2-methoxyphenyl)-8-azabicyclo-[3.2.1]octan-8-yl)piperidine-1-carboxylate] | < 25% | < 25% | < 25% | 25 to 100% | + (activity was measured to be greater than 5.0 μM) | + (activity was measured to be greater than 5.0 μM) | + (activity was measured to be greater than 5.0 μM) | ++ (activity was measured to be from 1.0 μM to 5.0 μM)
COc1ccc(F)cc1C1(OC)CCN(C[C@H]2C[C@H]3C=C[C@H]2C3)CC1 [Compound 292] | < 25% | 25 to 100% | 25 to 100% | 25 to 100% | + (activity was measured to be greater than 5.0 μM) | ++ (activity was measured to be from 1.0 μM to 5.0 μM) | ++ (activity was measured to be from 1.0 μM to 5.0 μM) | +++ (activity was measured to be less than 1.0 μM)
CCOC(=O)N1CCC(CN2CCC(OC)(c3cc(F)ccc3OC)CC2)CC1 [Compound 295] | < 25% | 25 to 100% | 25 to 100% | 25 to 100% | + (activity was measured to be greater than 5.0 μM) | ++ (activity was measured to be from 1.0 μM to 5.0 μM) | +++ (activity was measured to be less than 1.0 μM) | +++ (activity was measured to be less than 1.0 μM)
